Data reported in patent publication US20250041367A1, “BACTERIOPHAGES AND USE THEREOF FOR THE TREATMENT OR PREVENTION OF INFECTION CAUSED BY E. COLI” (Purdue Research Foundation, priority 2023, published 2025).

Assays:
[1] = test system: E. coli serotype O1:H23 (APEC); experiment: Host range spot assay; assay type: cell-based, Escherichia coli; design: key: — indicates no lysis at all; 0.1-1.0 indicates that the phage is semi-lytic; 1.1-2.0 indicates moderate lysis of bacteria; 2.1-3.0 indicates complete lysis of bacteria and formation of a transparent, circular clearing on the bacterial lawn; settings: E. coli serotype O1:H23, scale 0-3
Method: (§1) The host range of each bacteriophage type was determined by performing spot assays using each of the ten distinct APEC serotypes mentioned above. Spot assays were performed as known in the art (Barrow et al., 1998, Clinical and Diagnostic Laboratory Immunology, 5 (3), 294-298). 100 μL aliquots of log-phase bacterial cultures were combined with 67.5 μL 1M CaCl2) and 4 mL LB overlay, mixed briefly, and poured over LB agar plates. Once the overlay had solidified, 5 μL aliquots of individual phage types were applied (i.e., spotted) onto the plates, and plates were incubated at 37° C. overnight. Plates were assessed for clearings the following day and the degree of lysis was measured using a four-point scale in which 0 indicated no lysis, 1.0 indicated some lysis, 2.0 indicated moderate lysis, and 3 indicated complete lysis. Spot assays were conducted in triplicate for each phage and APEC strain.

[2] = test system: E. coli serotype O2 (APEC); experiment: Host range spot assay; assay type: cell-based, Escherichia coli; design: key: — indicates no lysis at all; 0.1-1.0 indicates that the phage is semi-lytic; 1.1-2.0 indicates moderate lysis of bacteria; 2.1-3.0 indicates complete lysis of bacteria and formation of a transparent, circular clearing on the bacterial lawn; settings: E. coli serotype O2, scale 0-3
Method: as §1

[3] = test system: E. coli serotype O2:H4 (APEC); experiment: Host range spot assay; assay type: cell-based, Escherichia coli; design: key: — indicates no lysis at all; 0.1-1.0 indicates that the phage is semi-lytic; 1.1-2.0 indicates moderate lysis of bacteria; 2.1-3.0 indicates complete lysis of bacteria and formation of a transparent, circular clearing on the bacterial lawn; settings: E. coli serotype O2:H4, scale 0-3
Method: as §1

[4] = test system: E. coli serotype O5 (APEC); experiment: Host range spot assay; assay type: cell-based, Escherichia coli; design: key: — indicates no lysis at all; 0.1-1.0 indicates that the phage is semi-lytic; 1.1-2.0 indicates moderate lysis of bacteria; 2.1-3.0 indicates complete lysis of bacteria and formation of a transparent, circular clearing on the bacterial lawn; settings: E. coli serotype O5, scale 0-3
Method: as §1

[5] = test system: E. coli serotype O6:H31 (APEC); experiment: Host range spot assay; assay type: cell-based, Escherichia coli; design: key: — indicates no lysis at all; 0.1-1.0 indicates that the phage is semi-lytic; 1.1-2.0 indicates moderate lysis of bacteria; 2.1-3.0 indicates complete lysis of bacteria and formation of a transparent, circular clearing on the bacterial lawn; settings: E. coli serotype O6:H31, scale 0-3
Method: as §1

[6] = test system: E. coli serotype O78 (APEC); experiment: Host range spot assay; assay type: cell-based, Escherichia coli; design: key: — indicates no lysis at all; 0.1-1.0 indicates that the phage is semi-lytic; 1.1-2.0 indicates moderate lysis of bacteria; 2.1-3.0 indicates complete lysis of bacteria and formation of a transparent, circular clearing on the bacterial lawn; settings: E. coli serotype O78, scale 0-3
Method: as §1

[7] = test system: E. coli serotype O78:H51 (APEC); experiment: Host range spot assay; assay type: cell-based, Escherichia coli; design: key: — indicates no lysis at all; 0.1-1.0 indicates that the phage is semi-lytic; 1.1-2.0 indicates moderate lysis of bacteria; 2.1-3.0 indicates complete lysis of bacteria and formation of a transparent, circular clearing on the bacterial lawn; settings: E. coli serotype O78:H51, scale 0-3
Method: as §1

[8] = test system: E. coli serotype O78:H9 (APEC); experiment: Host range spot assay; assay type: cell-based, Escherichia coli; design: key: — indicates no lysis at all; 0.1-1.0 indicates that the phage is semi-lytic; 1.1-2.0 indicates moderate lysis of bacteria; 2.1-3.0 indicates complete lysis of bacteria and formation of a transparent, circular clearing on the bacterial lawn; settings: E. coli serotype O78:H9, scale 0-3
Method: as §1

[9] = test system: ten APEC strains; experiment: Host range (lytic spectrum) over all ten APEC strains, spot assays; assay type: cell-based, Escherichia coli; settings: for number of different APEC strains lysed: of ten APEC strains; for degree of lysis against the APEC strains lysed: over the strains that the phage lyses, scale 0-3
Method: as §1

[10] = Encapsulation efficiency in sodium alginate microcapsules (plaque assay); assay type: physicochemical; design: Pre-encapsulation phage concentration / Concentration of phages in microcapsules: unit not given here; settings: for Pre-encapsulation phage concentration: before encapsulation; for Pre-encapsulation phage concentration / Concentration of phages in microcapsules: plaque assay; for Encapsulation efficiency: encapsulated / pre-encapsulation phage concentration; for Concentration of phages in microcapsules: sodium alginate microcapsules dissolved
Method: Bacteriophages were microencapsulated within sodium alginate microcapsules as well-known in the art with some modifications (Krasaekoopt et al., 2004, International Dairy Journal, 14 (8), 737-743). In short, sodium alginate (4 g) was mixed with 400 mL of a bacteriophage filtrate to make a 1% (w/v) suspension. This suspension was allowed to gel at room temperature for 4 hours and was then processed through a Buchi Encapsulator-B395 set at 200 Hz (frequency) and 1000V (electrode) with an aperture of 0.3 mm. The resulting microcapsules were collected in a beaker containing a hardening solution (100 mM CaCl2)) with continuous stirring to avoid clumping of microcapsules. Microcapsules were allowed to sit in the 100 mM CaCl2) solution to harden for 30 minutes and were then washed three times with SM buffer. Washed microcapsules were stored in SM buffer in 50 ml conical tubes at 4° C. until further use. Each of the six phage types was individually microencapsulated in this manner.
To assess the efficiency of microencapsulation, the concentrations of microencapsulated phages were compared to pre-encapsulation concentrations as well-known in the art (Yongsheng et al., 2008, Applied and Environmental Microbiology, 74 (15), 4799). To determine bacteriophage concentrations in microcapsules, microcapsules (0.5 g) were dried by contact with filter paper and then dissolved in 4.5 mL of dissolving solution (50 mM sodium citrate, 0.2M sodium bicarbonate, and 50 mM Tris-HCl; pH 7.5). Bacteriophage concentrations were then quantified by standard plaque assay as described previously. Encapsulation efficiency (EE %) was calculated as:
EE %=encapsulated phage concentration/pre-encapsulation phage concentration

[11] = Phage release from microcapsules in SIF after SGF; assay type: physicochemical; settings: encapsulated phage; for phages released from their microcapsules: 1 hour SGF then 1 hour in SIF; for concentration of released phages: 1 hour SGF then 1 hour of incubation in SIF
Method: The extent to which phages were released from microcapsules in the intestinal environment was investigated by incubating encapsulated phages first in SGF and then in SIF. 0.5 g of microencapsulated phages (microcapsules) was added to 4.5 mL SGF in duplicate tube sets and incubated at 41° C. for 1 hour with shaking. SGF was then carefully removed via pipetting and microcapsules were combined with either 4.5 mL of SIF or 4.5 mL 1×PBS and incubated at 41° C. with shaking. Aliquots (100 μL) were collected from each sample at 1, 2, and 3 hours following exposure to SIF. The concentrations of released phages in these aliquots were determined using standard plaque assays with phages' respective host APEC serotypes. The experiment was conducted in triplicate with each phage type.

| Substance | degree of lysis [1] | degree of lysis [2] | degree of lysis [3] | degree of lysis [4] | degree of lysis [5] | degree of lysis [6] | degree of lysis [7] | degree of lysis [8] | number of different APEC strains lysed [9] | degree of lysis against the APEC strains lysed [9] | Pre-encapsulation phage concentration [10] | Encapsulation efficiency [10] [%] | Concentration of phages in microcapsules [10] | phages released from their microcapsules [11] [%] | concentration of released phages [11] [log10 PFU/mL] |
| --- | --- | --- | --- | --- | --- | --- | --- | --- | --- | --- | --- | --- | --- | --- | --- |
| Escherichia phage vB_Eco_MP_1 [MP1] | — | — | 2.7 | — | — | — | — | — | two and at least two | 2.7 | 9.3 ± 0.2 | 98.9 | 9.2 ± 0.2 | 96.5 | 8.94 |
| Escherichia phage vB_Eco_AHP | 3.0 | — | — | — | 3.0 | — | — | — | four and at least two | 2.7-3.0 | 9.6 ± 0.1 | 97.9 | 9.4 ± 0.1 | 97.4 | 9.14 |
| Escherichia phage vB_Eco_MP_2 [MP2] | — | — | 3.0 | — | — | — | — | — | two and at least two | 3.0 | 9.4 ± 0.1 | 98.9 | 9.3 ± 0.2 | 95.4 | 8.88 |
| Escherichia phage vB_Eco_AKA | 1.0 | 2.7 | — | 1.7 | 3.0 | 1.3 | 1.0 | — | six and at least two |  | 8.6 ± 0.2 | 98.8 | 8.5 ± 0.1 | 94.4 | 7.99 |
| Escherichia phage vB_Eco_AHC | 1.0 | 3.0 | — | 1.7 | 2.7 | 1.7 | 1.0 | — | six and at least two |  | 8.9 ± 0.1 | 94.4 | 8.4 ± 0.2 | 95.8 | 7.99 |
| Escherichia phage vB_Eco_MIA | 1.0 | 3.0 | — | 1.7 | 2.7 | 2.0 | 1.0 | — | six and at least two |  | 8.9 ± 0.1 | 95.5 | 8.5 ± 0.1 | 94.7 | 8.05 |
